Broadly, the AUC is concentration integrated over time. High values mean high exposure, low ones low exposure. By Cmax is commonly meant the highest concentration seen after dosing. What is called half-life is how long it takes for the measured level to halve. Low values mean rapid decline, high ones slow decline.

≈ marks a conversion by molar mass, not a printed value. Read-outs that look alike come from different tables or passages of the source.

In series [1] the test system is S. aureus A15097 (Meth-res.). The series is described as follows: M.I.C., tube dilution. It counts as cell-based. The conditions noted are these: Staphylococcus aureus, overnight incubation at 37° C.
The subject of series [2] is S. faecalis A20688. In words: M.I.C., tube dilution. The series is classed as cell-based. The conditions noted are these: Enterococcus faecalis, A20688, overnight incubation at 37° C., Nutrient Broth; read-out: MIC.
Series [3] has as its system P. vulgaris A21559. In words: M.I.C., tube dilution. The series is classed as cell-based. The settings on record: Proteus vulgaris, A21559, overnight incubation at 37° C., Nutrient Broth; read-out: MIC.
Series [4] relates to P. aeruginosa A21213. The series is described as follows: M.I.C., tube dilution. The settings on record: Pseudomonas aeruginosa, A21213, overnight incubation at 37° C., Nutrient Broth; read-out: MIC. The series is classed as cell-based.
Series [5] relates to H. influenzae A-9833. In words: M.I.C., tube dilution. The settings on record: Haemophilus influenzae, A9833; overnight incubation at 37° C., Nutrient Broth. It counts as cell-based.
For series [6], the system named is H. influenzae A21518. In words: M.I.C., tube dilution. It counts as cell-based. The conditions noted are these: Haemophilus influenzae, overnight incubation at 37° C., Nutrient Broth.
Series [7] has as its system B. fragilis A22696. In words: M.I.C., tube dilution. The conditions noted are these: Bacteroides fragilis, overnight incubation at 37° C., Nutrient Broth. The series is classed as cell-based.
Series [8] concerns P. mirabilis A-9900. The series is described as follows: Protective effect in intramuscular treatment of infected mice. The settings on record: Proteus mirabilis, im; mice, i.m.; P. mirabilis A9900; read-out: PD50/treatment. The series is classed as in vivo.
Method: (§1) The PD50 (dose in mg/kg required to give protection to 50% of the infected mice) is indicated.
with drugs 0 and 2 hours postinfection.
(§2) The PD50 (dose in mg/kg) required to give protection to 50% of the infected mice is indicated.
Series [9] relates to P. aeruginosa A-9843a. In words: animal or person. It counts as in vivo, mice. The conditions noted are these: Pseudomonas aeruginosa, A9843A, in Mus musculus, im, read-out: PD50/treatment.
Method: as §1
with drugs 0 and 2 hours postinfection.
as §2
Series [10] relates to S. aureus A-9606. In words: Protective effect in intramuscular treatment of infected mice. It counts as in vivo. The conditions noted are these: Staphylococcus aureus, im; mice, i.m.; S. aureus A9606; read-out: PD50/treatment.
Method: as §1
with drugs 0 and 2 hours postinfection.
as §2
Series [11] relates to E. coli A-15119. Described as above. The series is classed as in vivo. The conditions noted are these: Escherichia coli, im; mice, i.m.; E. coli A15119; read-out: PD50/treatment.
Method: as §1
with drugs 0 and 2 hours postinfection.
as §2
The subject of series [12] is K. pneumoniae A9664. The description is as above. It counts as in vivo. The conditions noted are these: Klebsiella pneumoniae, im, K. pneumoniae A9664, read-out: PD50/treatment.
From the text: as §2
Series [13] has as its system P. aeruginosa A24081. The description is as above. It counts as in vivo. The settings on record: Pseudomonas aeruginosa, read-out: PD50/treatment.
From the text: as §2
A short description of series [14]: Blood levels in mice after intramuscular administration.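 Further: compounds dissolved in 0.1 M phosphate buffer at pH 7, data from one experiment using four mice for each compound.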 The settings on record: mouse, blood, im, 20 mg/kg.
From the text: Compounds were solubilized in 0.1 M phosphate buffer pH 7.
a single test; 4 mice used per compound.
Compounds were solubilized in 0.1 M phosphate buffer, pH 7.
on a single test; 4 mice per compound.
The subject of series [15] is S. pyogenes A-9604. The series is described as follows: M.I.C., tube dilution. It counts as cell-based. The conditions noted are these: Streptococcus pyogenes, A9604; overnight incubation at 37° C., Nutrient Broth; read-out: MIC.
For series [16], the system named is S. aureus A-9537. In words: M.I.C., tube dilution. It counts as cell-based. The settings on record: Staphylococcus aureus, A9537; +50% serum; read-out: MIC.
Series [17] concerns K. pneumoniae A-9664. In words: M.I.C., tube dilution. The series is classed as cell-based. The settings on record: Klebsiella pneumoniae, A9664, overnight incubation at 37° C., Nutrient Broth; read-out: MIC.
Series [18] has as its system K. pneumoniae A20468. In words: M.I.C., tube dilution. The series is classed as cell-based. The settings on record: Klebsiella pneumoniae, A20468, overnight incubation at 37° C., Nutrient Broth; read-out: MIC.
Series [19] concerns P. mirabilis A-9900. The series is described as follows: M.I.C., tube dilution. The series is classed as cell-based. The conditions noted are these: Proteus mirabilis, A9900, overnight incubation at 37° C., Nutrient Broth; read-out: MIC.
Series [20] concerns P. rettgeri A22424. The series is described as follows: M.I.C., tube dilution. The settings on record: Providencia rettgeri, A22424; overnight incubation at 37° C., Nutrient Broth; read-out: MIC. The series is classed as cell-based.
Series [21] has as its system S. marcescens A20019. In words: M.I.C., tube dilution. The conditions noted are these: Serratia marcescens, A20019; overnight incubation at 37° C., Nutrient Broth; read-out: MIC. The series is classed as cell-based.
Series [22] has as its system E. cloacae A-9659. In words: M.I.C., tube dilution. The conditions noted are these: Enterobacter cloacae, A9659; overnight incubation at 37° C., Nutrient Broth; read-out: MIC. It counts as cell-based.
The subject of series [23] is E. cloacae A-9656. In words: M.I.C., tube dilution. The series is classed as cell-based. The settings on record: Enterobacter cloacae, A9656, overnight incubation at 37° C., Nutrient Broth; read-out: MIC.
For series [24], the system named is B. fragilis A22862. The series is described as follows: M.I.C., tube dilution. The series is classed as cell-based. The conditions noted are these: Bacteroides fragilis, overnight incubation at 37° C., Nutrient Broth.

Consider `C[C@@H](O)[C@H]1C(=O)N2C(C(=O)[O-])=C(SCc3ccc[n+](C)c3)C[C@H]12` [Example 3, 3-(N-Methylpyridine-3-yl-methanethio)-6α-[1-(R)-hydroxyethyl]-7-oxo-1-azabicyclo(3.2.0)hept-2-ene-2-carboxylate], for which the MIC in series [1] came out at 4 mg/L (≈ 12 µM); in series [2], 0.5 mg/L (≈ 1.5 µM); in series [3], 0.016 mg/L (≈ 0.0478 µM); in [4], 0.5 mg/L (≈ 1.5 µM); in series [5] it was 2 mg/L (≈ 5.98 µM); in series [6], 2 mg/L (≈ 5.98 µM). Besides, the MIC in series [7] turned out to be 0.5 mg/L (≈ 1.5 µM). Further, the ED50 is 2 mg/kg in series [8]; 0.5 mg/kg in series [9]; 0.07 mg/kg in series [10]; 1 mg/kg in series [11]; 3 mg/kg in series [12]; 0.8 mg/kg in [13] (im, mice, i.m., P. aeruginosa A24081). Further, the AUC in [14] turned out to be 6.9 µg·h/mL. Besides, the Cmax in series [14] is 14.5 µg/mL. In series [14], this compound displayed a half-life of 10 min.

For the compound `C[C@@H](O)[C@H]1C(=O)N2C(C(=O)[O-])=C(SCc3cccc[n+]3C)C[C@H]12` [Example 4, 3-(N-Methylpyridine-2-yl-methanethio)-6α-[1-(R)-hydroxyethyl]-7-oxo-1-azabicyclo(3.2.0)hept-2-ene-2-carboxylate], the MIC in series [15] is 0.001 mg/L (≈ 0.00299 µM); in series [16], 0.03 mg/L (≈ 0.0897 µM); in series [1], 4 mg/L (≈ 12 µM); in series [2], 0.5 mg/L (≈ 1.5 µM); in series [17], 0.03 mg/L (≈ 0.0897 µM); in [18], 0.03 mg/L (≈ 0.0897 µM). The MIC was found to be 0.06 mg/L (≈ 0.179 µM) in series [19]; 0.016 mg/L (≈ 0.0478 µM) in series [3]; 0.13 mg/L (≈ 0.389 µM) in series [20]; 0.03 mg/L (≈ 0.0897 µM) in series [21]; 0.03 mg/L (≈ 0.0897 µM) in series [22]; 0.06 mg/L (≈ 0.179 µM) in series [23]. The MIC in series [4] is 0.13 mg/L (≈ 0.389 µM); in [5], 2 mg/L (≈ 5.98 µM); in series [6] it was 2 mg/L (≈ 5.98 µM); in series [24], 0.06 mg/L (≈ 0.179 µM); in [7], 0.5 mg/L (≈ 1.5 µM). The ED50 in series [8] was 4 mg/kg; in [9] it was 0.2 mg/kg; in series [10] it was 0.1 mg/kg; in series [11], 0.4 mg/kg; in series [12] it was 3 mg/kg; in series [13] (A24081, im), 0.2 mg/kg. The compound further registered an AUC in [14] of 7.7 µg·h/mL. The peak level in [14] (Cmax) was 15.5 µg/mL. This compound returned a half-life in series [14] of 11 min.

Values taken from patent US4732977A, “Carbapenem antibiotics” (priority 1986, dated 1988).
